Source: PubChem BioAssay (NCI)
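Five compound concentrations were applied to cells in 96-well plates for 48 hours; endpoints were derived by simple linear interpolation of the resulting dose-response curve. At the GI50, growth is halved. TGI is the concentration that stops growth completely.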

How the values were obtained:
Assay in all cases: NCI-60 cell line screen, 48 h
SF-539 CNS = system: SF-539 CNS
SNB-19 CNS = system: SNB-19 CNS
UACC-62 melanoma = system: UACC-62 melanoma
PC-3 prostate = system: PC-3 prostate
SN12C renal = system: SN12C renal
OVCAR-3 ovarian = system: OVCAR-3 ovarian
MDA-MB-435 = system: MDA-MB-435
SW-620 colon = system: SW-620 colon
HOP-92 NSCLC = system: HOP-92 NSCLC
SK-MEL-2 melanoma = system: SK-MEL-2 melanoma
SK-OV-3 ovarian = system: SK-OV-3 ovarian
TK-10 renal = system: TK-10 renal
SNB-75 CNS = system: SNB-75 CNS
HCC-2998 colon = system: HCC-2998 colon
MCF7 breast = system: MCF7 breast
OVCAR-5 ovarian = system: OVCAR-5 ovarian
NCI-H522 lung = system: NCI-H522 lung
UACC-257 melanoma = system: UACC-257 melanoma
BT-549 breast = system: BT-549 breast
ACHN renal = system: ACHN renal
U251 CNS = system: U251 CNS
RPMI-8226 leukemia = system: RPMI-8226 leukemia
K-562 leukemia = system: K-562 leukemia
NCI-H226 lung = system: NCI-H226 lung
SR leukemia = system: SR leukemia
DU-145 prostate = system: DU-145 prostate
HCT-116 colon = system: HCT-116 colon
SF-295 CNS = system: SF-295 CNS
NCI/ADR-RES ovarian = system: NCI/ADR-RES ovarian

Cn1c(=O)c(Sc2ccccc2F)cc2cnc(NC3CCOCC3)nc21 showed a TGI (SF-539 CNS) of over 25 µM, a GI50 (SNB-19 CNS) of over 25 µM and a TGI (SNB-19 CNS) of over 25 µM. It also gave a GI50 (UACC-62 melanoma) of over 25 µM, a TGI (UACC-62 melanoma) of over 25 µM and a GI50 (PC-3 prostate) of over 25 µM. For the same compound, the TGI (PC-3 prostate) was over 25 µM, the GI50 (SN12C renal) was over 25 µM and the TGI (SN12C renal) was over 25 µM. The GI50 (OVCAR-3 ovarian) was over 25 µM, the TGI (OVCAR-3 ovarian) was over 25 µM and the GI50 (MDA-MB-435) was over 25 µM. It also gave a TGI (MDA-MB-435) of over 25 µM, a GI50 (SW-620 colon) of over 25 µM and a TGI (SW-620 colon) of over 25 µM. The GI50 (HOP-92 NSCLC) was over 25 µM, the TGI (HOP-92 NSCLC) was over 25 µM and the GI50 (SK-MEL-2 melanoma) was over 25 µM. It also gave a TGI (SK-MEL-2 melanoma) of over 25 µM, a GI50 (SK-OV-3 ovarian) of over 25 µM and a TGI (SK-OV-3 ovarian) of over 25 µM. It also gave a GI50 (TK-10 renal) of over 25 µM, a TGI (TK-10 renal) of over 25 µM and a GI50 (SNB-75 CNS) of over 25 µM. The TGI (SNB-75 CNS) was over 25 µM, the GI50 (HCC-2998 colon) was over 25 µM and the TGI (HCC-2998 colon) was over 25 µM. It also gave a GI50 (MCF7 breast) of over 25 µM, a TGI (MCF7 breast) of over 25 µM and a GI50 (OVCAR-5 ovarian) of over 25 µM. For the same compound, the TGI (OVCAR-5 ovarian) was over 25 µM, the GI50 (NCI-H522 lung) was over 25 µM and the TGI (NCI-H522 lung) was over 25 µM. The GI50 (UACC-257 melanoma) was over 25 µM, the TGI (UACC-257 melanoma) was over 25 µM and the GI50 (BT-549 breast) was over 25 µM. It also gave a TGI (BT-549 breast) of over 25 µM, a GI50 (ACHN renal) of over 25 µM and a TGI (ACHN renal) of over 25 µM. For the same compound, the GI50 (U251 CNS) was over 25 µM, the TGI (U251 CNS) was over 25 µM and the GI50 (RPMI-8226 leukemia) was over 25 µM. It also gave a TGI (RPMI-8226 leukemia) of over 25 µM, a GI50 (K-562 leukemia) of over 25 µM and a TGI (K-562 leukemia) of over 25 µM. The GI50 (NCI-H226 lung) was over 25 µM, the TGI (NCI-H226 lung) was over 25 µM and the GI50 (SR leukemia) was over 25 µM. It also gave a TGI (SR leukemia) of over 25 µM, a GI50 (DU-145 prostate) of over 25 µM and a TGI (DU-145 prostate) of over 25 µM. The GI50 (HCT-116 colon) was over 25 µM, the TGI (HCT-116 colon) was over 25 µM and the GI50 (SF-295 CNS) was over 25 µM. For the same compound, the TGI (SF-295 CNS) was over 25 µM, the GI50 (NCI/ADR-RES ovarian) was over 25 µM and the TGI (NCI/ADR-RES ovarian) was over 25 µM.
